# pIC50: −log10 of the molar value.
# Target: ROCK2 (human) (UniProt O75116)
# Assay: Inhibition of ROCK2 Kinase Activity
# Chain of ROCK2 (human) (O75116 whole entry, looked up): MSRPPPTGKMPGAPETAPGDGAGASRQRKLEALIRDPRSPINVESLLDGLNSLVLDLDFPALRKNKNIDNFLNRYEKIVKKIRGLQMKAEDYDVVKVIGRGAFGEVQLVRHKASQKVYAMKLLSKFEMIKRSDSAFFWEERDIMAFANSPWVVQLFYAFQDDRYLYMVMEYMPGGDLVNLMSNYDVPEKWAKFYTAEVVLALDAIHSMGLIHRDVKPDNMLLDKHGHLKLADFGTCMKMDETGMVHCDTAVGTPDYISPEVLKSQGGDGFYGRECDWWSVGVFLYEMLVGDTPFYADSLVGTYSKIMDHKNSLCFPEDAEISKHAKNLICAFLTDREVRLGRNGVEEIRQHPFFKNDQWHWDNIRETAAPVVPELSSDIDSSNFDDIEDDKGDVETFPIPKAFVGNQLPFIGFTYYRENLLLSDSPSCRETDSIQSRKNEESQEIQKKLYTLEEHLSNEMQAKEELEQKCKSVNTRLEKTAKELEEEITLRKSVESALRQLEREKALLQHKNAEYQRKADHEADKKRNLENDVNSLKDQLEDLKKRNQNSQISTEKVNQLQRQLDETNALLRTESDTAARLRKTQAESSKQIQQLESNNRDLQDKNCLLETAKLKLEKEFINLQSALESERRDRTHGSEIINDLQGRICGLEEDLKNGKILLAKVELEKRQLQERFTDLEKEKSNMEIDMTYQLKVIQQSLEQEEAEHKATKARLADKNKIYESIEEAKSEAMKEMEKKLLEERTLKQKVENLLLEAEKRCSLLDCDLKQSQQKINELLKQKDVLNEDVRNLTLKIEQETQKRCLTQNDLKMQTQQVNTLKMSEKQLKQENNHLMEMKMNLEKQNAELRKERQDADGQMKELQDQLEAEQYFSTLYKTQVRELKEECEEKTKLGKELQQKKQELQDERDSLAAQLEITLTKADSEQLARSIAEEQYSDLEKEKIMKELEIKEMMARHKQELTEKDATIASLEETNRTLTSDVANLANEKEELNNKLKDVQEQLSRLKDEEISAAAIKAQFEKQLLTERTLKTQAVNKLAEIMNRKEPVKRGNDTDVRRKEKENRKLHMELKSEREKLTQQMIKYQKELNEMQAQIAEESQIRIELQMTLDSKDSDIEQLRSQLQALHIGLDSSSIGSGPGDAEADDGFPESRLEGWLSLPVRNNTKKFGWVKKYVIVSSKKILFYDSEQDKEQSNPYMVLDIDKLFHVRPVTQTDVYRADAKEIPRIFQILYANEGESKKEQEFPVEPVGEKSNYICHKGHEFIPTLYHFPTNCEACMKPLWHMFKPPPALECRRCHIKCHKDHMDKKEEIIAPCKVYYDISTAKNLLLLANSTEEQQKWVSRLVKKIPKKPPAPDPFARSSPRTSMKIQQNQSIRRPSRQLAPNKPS
row,Structure (SMILES),pIC50
1,O=C(CNCC1CCCCC1)Nc1cc2cc[nH]c(=O)c2cc1Cl,> 6.00
2,O=C(Nc1cc2cc[nH]c(=O)c2cc1Cl)c1ccc2c(c1)CNCC2,> 6.00
3,O=C(Nc1ccc2c(=O)[nH]ccc2c1)c1cc(Cl)sc1Cl,> 6.00
4,COC(C(=O)Nc1cc2cc[nH]c(=O)c2cc1Cl)(c1ccccc1)C(F)(F)F (stereo unspecified),> 6.00
5,N[C@H]1CC[C@@](C(=O)Nc2cc3cc[nH]c(=O)c3cc2Cl)(c2ccc(Cl)cc2)CC1,> 6.00
6,O=C(Nc1cc2cc[nH]c(=O)c2cc1Cl)c1cccc2c1CNCC2,> 6.00
7,NC1(C(=O)Nc2ccc3c(=O)[nH]ccc3c2)CCCCC1,> 6.00
8,O=C(Nc1cc2cc[nH]c(=O)c2cc1Cl)c1ccc(N2CCOCC2)cc1Cl,> 6.00
9,O=C(Nc1cc2cc[nH]c(=O)c2cc1Cl)C(c1ccccc1)N1CCC(O)CC1 (stereo unspecified),> 6.00
10,O=C(Nc1cc2cc[nH]c(=O)c2cc1Cl)C1CCOCC1,> 6.00
11,CS(=O)(=O)CC(=O)Nc1cc2cc[nH]c(=O)c2cc1Cl,> 6.00
12,CSCCC(=O)Nc1cc2cc[nH]c(=O)c2cc1Cl,> 6.00
13,CC(C)(Oc1ccc(Cl)cc1)C(=O)Nc1ccc2c(=O)[nH]ccc2c1,> 6.00
14,CN(C)C(C(=O)Nc1cc2nc[nH]c(=O)c2cc1Cl)c1ccccc1 (stereo unspecified),> 6.00
15,O=C(Nc1ccc2c(=O)[nH]ccc2c1)c1cccnc1Sc1ccccc1,> 6.00
16,C[C@](O)(C(=O)Nc1ccc2c(=O)[nH]cnc2c1)c1ccc(Cl)cc1,> 6.00
17,O=C(Nc1c(Cl)cc2c(=O)[nH]ccc2c1F)[C@H]1CNC[C@@H]1c1ccccc1,> 6.00
18,CCOC(=O)CC(=O)Nc1cc2cc[nH]c(=O)c2cc1Cl,> 6.00
19,O=C(Nc1cc2cc[nH]c(=O)c2cc1Cl)c1ccccc1Br,> 6.00
20,O=C(Nc1cc2cc[nH]c(=O)c2cc1Cl)[C@H](O)c1cccc(Cl)c1,> 6.00
21,CNC(C)(C)C(=O)Nc1ccc2c(=O)[nH]ccc2c1,> 6.00

row,Structure (SMILES),pIC50
1,CC(C)O[C@@H](C(=O)Nc1cc2cc[nH]c(=O)c2cc1Cl)c1ccccc1,> 6.00
2,CCOC(=O)CCC(=O)Nc1ccc2c(=O)[nH]ccc2c1,> 6.00
3,CC(NCCc1cccs1)C(=O)Nc1cc2cc[nH]c(=O)c2cc1Cl (stereo unspecified),> 6.00
4,C[C@H]1CN(C)CC[C@@H]1C(=O)Nc1cc2cc[nH]c(=O)c2cc1Cl,> 6.00
5,NC(Cc1ccc(F)cc1)C(=O)Nc1cc2cc[nH]c(=O)c2cc1Cl (stereo unspecified),> 6.00
6,O=C(Nc1cc2cc[nH]c(=O)c2cc1Cl)[C@H]1CNC[C@@H]1c1cccc(Br)c1,> 6.00
7,CSCC(=O)Nc1cc2cc[nH]c(=O)c2cc1Cl,> 6.00
8,O=C(Nc1cc2cc[nH]c(=O)c2cc1Cl)c1cccc(Cl)c1Cl,> 6.00
9,O=C(Nc1cc2cc[nH]c(=O)c2cc1Cl)[C@H]1CCCO1,> 6.00
10,O=C(Nc1cc2cc[nH]c(=O)c2cc1Cl)c1cc([N+](=O)[O-])ccc1Cl,> 6.00
11,COc1cc2c(=O)[nH]ccc2cc1NC(=O)[C@@H](OC)c1ccccc1,> 6.00
12,O=C(CNCC1CC1)Nc1ccc2c(=O)[nH]cnc2c1,> 6.00
13,N[C@@H](Cc1ccccc1)C(=O)Nc1ccc2c(=O)[nH]cnc2c1,> 6.00
14,CO[C@@H](C(=O)Nc1cc2cc[nH]c(=O)c2cc1Cl)c1ccccc1,> 6.00
15,O=C(Nc1ccc2c(=O)[nH]ccc2c1)[C@H]1CCCNC1,> 6.00
16,N[C@H]1CCC[C@@H](C(=O)Nc2cc3cc[nH]c(=O)c3cc2Cl)C1,> 6.00
17,N[C@@H](CC1CCCCC1)C(=O)Nc1cc2cc[nH]c(=O)c2cc1Cl,> 6.00
18,Cc1onc(-c2ccccc2)c1C(=O)Nc1cc2cc[nH]c(=O)c2cc1Cl,> 6.00
19,O=C(Nc1cc2cc[nH]c(=O)c2cc1Cl)[C@H]1CNCC[C@@H]1c1ccccc1,> 6.00
20,N[C@@H](C(=O)Nc1ccc2c(=O)[nH]ccc2c1)C1CCCCC1,> 6.00
21,O=C(Nc1cc2cc[nH]c(=O)c2cc1Cl)c1c(F)ccc(F)c1F,> 6.00

row,Structure (SMILES),pIC50
1,O=C(Nc1cc2cc[nH]c(=O)c2cc1Cl)c1cccc([N+](=O)[O-])c1Cl,> 6.00
2,O=c1[nH]ccc2cc(NC(=O)[C@H]3CC[C@@H](C(=O)O)CC3)c(Cl)cc12,> 6.00
3,CC1(C(=O)Nc2cc3cc[nH]c(=O)c3cc2Cl)CCNCC1,> 6.00
4,O=C(Nc1cc2cc[nH]c(=O)c2cc1Cl)[C@H](O)c1ccccc1Cl,> 6.00
5,O=C(Nc1cc2cc[nH]c(=O)c2cc1Cl)[C@H](O)c1ccccc1,> 6.00
6,O=C(Nc1cc2nc[nH]c(=O)c2cc1Cl)C(NC1CC1)c1ccccc1 (stereo unspecified),> 6.00
7,CCN(CCN(C)C)C(C(=O)Nc1cc2cc[nH]c(=O)c2cc1Cl)c1ccccc1 (stereo unspecified),> 6.00
8,O=C(CNCC1CCOCC1)Nc1cc2cc[nH]c(=O)c2cc1Cl,> 6.00
9,O=C(Nc1cc2cc[nH]c(=O)c2cc1Cl)[C@H](O)C1CCCCC1,> 6.00
10,CC(C)[C@@H](N)C(=O)Nc1ccc2c(=O)[nH]cnc2c1,> 6.00
11,O=C(CNCc1ccccn1)Nc1cc2cc[nH]c(=O)c2cc1Cl,> 6.00
12,NC(C(=O)Nc1ccc2c(=O)[nH]cnc2c1)c1ccccc1 (stereo unspecified),> 6.00
13,O=C(Nc1cc2cc[nH]c(=O)c2cc1Cl)C1(c2ccccc2)CCNC1 (stereo unspecified),> 6.00
14,N[C@@H](C(=O)Nc1ccc2c(=O)[nH]ccc2c1)c1ccc(Cl)cc1,> 6.00
15,CN1CCC(C(=O)Nc2cc3cc[nH]c(=O)c3cc2F)CC1,> 6.00
16,O=C(Nc1ccc2c(=O)[nH]cnc2c1)C1CCN(Cc2ccccc2)CC1,> 6.00
17,O=C(Nc1ccc2c(=O)[nH]ccc2c1)[C@@H]1CCCNC1,> 6.00
18,CC(C)(N)C(=O)Nc1ccc2c(=O)[nH]ccc2c1,> 6.00
19,CC(C)(C)CC(=O)Nc1cc2cc[nH]c(=O)c2cc1Cl,> 6.00
20,N[C@H](Cc1cccc2ccccc12)C(=O)Nc1cc2cc[nH]c(=O)c2cc1Cl,> 6.00
21,C[C@H]1CC(=O)CC[C@@H]1C(=O)Nc1cc2cc[nH]c(=O)c2cc1Cl,> 6.00

row,Structure (SMILES),pIC50
1,C[C@](O)(C(=O)Nc1cc2nc[nH]c(=O)c2cc1Cl)c1ccc(Cl)cc1,> 6.00
2,Cc1ccc([C@@H](N)C(=O)Nc2cc3cc[nH]c(=O)c3cc2Cl)cc1,> 6.00
3,O=c1[nH]ccc2cc(NC(=O)[C@H]3CC[C@@H](O)CC3)c(Cl)cc12,> 6.00
4,O=C(Nc1cc2cc[nH]c(=O)c2cc1Cl)[C@@H]1CCCO1,> 6.00
5,O=C(Nc1cc2cc[nH]c(=O)c2cc1Cl)[C@H]1[C@@H]2CNC[C@@H]21,> 6.00
6,O=C(O)CC(C(=O)Nc1cc2cc[nH]c(=O)c2cc1Cl)c1ccccc1 (stereo unspecified),> 6.00
7,CC(C(=O)Nc1cc2cc[nH]c(=O)c2cc1Cl)N1CCSCC1 (stereo unspecified),> 6.00
8,O=C(Nc1cc2cc[nH]c(=O)c2cc1Cl)[C@H]1CCCCN1,> 6.00
9,N[C@H](Cc1ccc(Cl)cc1)C(=O)Nc1cc2cc[nH]c(=O)c2cc1Cl,> 6.00
10,COc1cc2c(=O)[nH]ccc2cc1NC(=O)[C@@H]1CCC[C@H](N)C1,> 6.00
11,CN(CC(=O)Nc1ccc2c(=O)[nH]cnc2c1)C1CCCCC1,> 6.00
12,C[C@H]1CNCC[C@@H]1C(=O)Nc1cc2cc[nH]c(=O)c2cc1Cl,> 6.00
13,N[C@@H](C(=O)Nc1ccc2c(=O)[nH]ccc2c1)c1ccccc1,> 6.00
14,CC(C)(C(=O)Nc1cc2cc[nH]c(=O)c2cc1Cl)c1ccccc1,> 6.00
15,CN(C)C(C(=O)Nc1ccc2c(=O)[nH]ccc2c1)c1ccccc1 (stereo unspecified),> 6.00
16,N[C@H]1CC[C@](C(=O)Nc2cc3cc[nH]c(=O)c3cc2Cl)(c2ccc(Cl)cc2)CC1,> 6.00
17,O=C(Nc1cc2cc[nH]c(=O)c2cc1Cl)c1c(F)cc(F)cc1F,> 6.00
18,C[C@@](O)(C(=O)Nc1cc2cc[nH]c(=O)c2cc1Cl)c1ccccc1,> 6.00

# Reference: the Kinase Knowledgebase extract (Sharma et al. 2016)
